Test results reported in patent publication US9487489B2, “Halogen-substituted pyrazole derivatives as pest-control agents” (BAYER CROPSCIENCE AKTIENGESELLSCHAFT, priority 2013, dated 2016).

Tests used:
[1] = test system: adult houseflies (Musca domestica); test: Musca domestica test (MUSCDO); type: in vivo; settings: application rate 100 ppm; after 2 days
Summary of the method: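 Groups of 10 adult Musca domestica exposed to a sugar-soaked sponge treated with the water-diluted DMSO preparation of compound at the chosen concentration. Percent kill read at day 2, where 0% means no flies killed and 100% all killed.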

[2] = test system: larvae of the mustard beetle (Phaedon cochleariae); test: Phaedon cochleariae spray test (PHAECO); type: in vivo; settings: Chinese cabbage leaf discs, after 7 days
Summary of the method: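 Kill of mustard beetle larvae is read as % mortality 7 days after spraying. Spray liquid: active compound in acetone plus dimethylformamide, brought up with water holding 1000 ppm alkylaryl polyglycol ether emulsifier and diluted further in emulsifier-water.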

[3] = test system: L1 larvae of the Australian sheep blowfly (Lucilia cuprina); test: Lucilia cuprina test (LUCICU); type: in vivo; settings: application rate 100 ppm; after 2 days
Summary of the method: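 Percent mortality read at 2 days; 100% = all larvae killed, 0% = none. Test compound, predissolved in DMSO and water-diluted to the wanted level, was mixed into minced horsemeat holding roughly 20 first-instar larvae.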

[4] = test system: cattle ticks (Boophilus microplus) Parkhurst strain, SP-resistant; test: Boophilus microplus dip test (BOOPMI Dip); type: in vivo; settings: application rate 100 ppm, assessed after 7 days
Summary of the method: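 Adult engorged female SP-resistant Parkhurst ticks (8–10) were fully immersed in compound diluted in water from a DMSO solution, then kept in a climate-controlled room. After 7 days, fertile egg-laying was scored, with larval hatching checked at about 42 days; 100% efficacy means no fertile eggs.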

[5] = test system: adult dog ticks (Rhipicephalus sanguineus); test: Rhipicephalus sanguineus in vitro contact test with adult brown dog ticks (T2); settings: after 48 h
Summary of the method: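 Acetone solutions coated onto test tube walls and floor, giving 5 μg/cm^2 at 900 ppm. Five to ten adult ticks held per tube in the dark at room temperature for 48 h, then heated at 45-50° C for up to 5 min; efficacy is the percentage of dead or moribund ticks unable to climb away.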

[6] = test system: southern root-knot nematode (Meloidogyne incognita); test: Meloidogyne incognita test (MELGIN); type: in vivo; settings: application rate 20 ppm; lettuce; after 14 days
Method: K. Meloidogyne incognita Test (MELGIN)
Solvent: 125.0 parts by weight of acetone
To prepare a suitable active compound preparation, 1 part by weight of active compound is mixed with the stated amount of solvent and the concentrate is diluted with water to the desired concentration.
Vessels are filled with sand, active compound solution, an egg/larvae suspension of the southern root-knot nematode (Meloidogyne incognita) and lettuce seeds. The lettuce seeds germinate and the plants develop. On the roots, galls are formed.
After 14 days, the nematicidal efficacy in % is determined by the formation of galls. 100% means that no galls have been found; 0% means that the number of galls on the treated plants corresponds to the untreated control.

[7] = test system: greenhouse red spider mite (Tetranychus urticae); test: Tetranychus urticae spray test, OP-resistant (TETRUR); type: in vivo; settings: bean leaf discs, after 6 days
Summary of the method: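 Percent kill, scored 6 days post-spray (0% = none dead, 100% = all dead), on Phaseolus vulgaris leaf discs infested with every life stage of the OP-resistant spider mite. Compound dissolved in acetone plus DMF, diluted to test concentration with emulsifier-containing water (1000 ppm).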

[8] = test system: caterpillars of the armyworm (Spodoptera frugiperda); test: Spodoptera frugiperda spray test (SPODFR); type: in vivo; settings: application rate 500 g/ha; maize leaf discs; after 7 days
Summary of the method: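 Percent kill read at day 7 on caterpillar-infested maize leaf discs. Discs were first sprayed with aqueous emulsifier-containing (1000 ppm) preparations made from acetone/dimethylformamide solutions, and dried. Scale: 0% none dead, 100% all dead.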

[9] = test system: adult cat fleas (Ctenocephalides felis); test: Ctenocephalides felis in vitro contact test with adult cat fleas (T1); settings: after 48 h
Summary of the method: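 Adult cat fleas (Ctenocephalides felis), 5-10 per tube, were exposed to the inner surface of 25 ml test tubes coated with compound in acetone. Tubes were incubated lying flat under ambient conditions. Efficacy was then read by standing tubes upright and knocking the fleas to the floor. Fleas that stayed motionless or moved uncoordinatedly counted as dead or moribund, where 100% means all fleas dead or moribund and 0% means none harmed.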

[10] = test system: adult cat fleas (Ctenocephalides felis); test: Ctenocephalides felis oral test (CTECFE); type: in vivo; settings: application rate 100 ppm in citrated cattle blood; after 2 days
Summary of the method: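 Mortality read at 2 days as percent of fleas killed. Compound predissolved in DMSO, diluted into citrated cattle blood and offered to roughly 20 unfed adult C. felis via parafilm membrane feeder.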

[11] = test system: green peach aphid (Myzus persicae); test: Myzus persicae spray test (MYZUPE); type: in vivo; settings: application rate 500 g/ha; Chinese cabbage leaf discs; after 6 days
Summary of the method: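 Chinese cabbage leaf discs infested with all aphid stages sprayed with compound in acetone/DMF with alkylaryl polyglycol ether emulsifier in water. Efficacy (% aphids killed; 100% all dead, 0% none) scored after 6 days.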

[12] = test system: engorged adult female cattle ticks (Boophilus microplus); test: Boophilus microplus injection test (BOOPMI Inj); type: in vivo; settings: application rate 20 μg/animal; injection into abdomen; assessed after 7 days
Summary of the method: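 Efficacy is read at 7 days as fertile egg laying (100% = no fertile eggs laid; 0% = all eggs fertile), with eggs of unclear fertility stored until larvae hatch at about 42 days. Five engorged adult females per dose each receive an abdominal injection of 1 μl compound dissolved in DMSO.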

[13] = logP determination by HPLC on a reversed-phase column (C18), EEC Directive 79/831 Annex V.A8; type: physicochemical; settings: HPLC on reversed-phase column (C18), acetonitrile/water with formic acid, EEC Directive 79/831 Annex V.A8
Summary of the method: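 Per EEC 79/831 Annex V.A8, values derive from HPLC retention at 2.0 ml/min and 55° C on a 50*4.6 C18 column. The 10→95% acetonitrile gradient (0.1%/0.09% formic acid) lasted 4.25 min plus a 1.25 min hold; mass detection was by MSD.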

SMILES | efficacy (kill in %) [1] | efficacy in % ([2]; application rate 500 g/ha) | efficacy (kill in %) [3] | efficacy (laying of fertile eggs) [4] | efficacy (dead or moribund ticks) ([5]; application rate 1 μg/cm^2) | efficacy (dead or moribund ticks) ([5]; application rate 5 μg/cm^2) | nematicidal efficacy in % (formation of galls) [6] | efficacy in % ([7]; application rate 500 g/ha) | efficacy in % [8] | efficacy (dead or moribund fleas) ([9]; application rate 1 μg/cm^2) | efficacy (dead or moribund fleas) ([9]; application rate 5 μg/cm^2) | efficacy (kill in %) [10] | efficacy in % [11] | efficacy (laying of fertile eggs) [12] | logP [13] | efficacy in % ([2]; application rate 100 g/ha) | efficacy in % ([7]; application rate 100 g/ha)
CNC(=O)c1cc(-c2cnn(-c3c(C(F)(F)F)c(C(F)(F)C(F)(F)F)nn3C)c2)ccc1Cl [Ic-152] | 100% | 100% | 100% | 100% | 100% | 100% | 100% | 100% | 100% | 100% | 100% | 100% | 100% | 100% |  |  | 
Cn1nc(C(F)(F)C(F)(F)F)c(C(F)(F)F)c1-n1cc(-c2ccc(Cl)c(C(=O)NS(C)(=O)=O)c2)cn1 [Ic-26] |  |  |  |  |  |  | 90% |  |  |  |  |  |  |  | 3.58 |  | 
CSCC1CCC1NC(=O)c1cc(-c2cnn(-c3c(C(F)(F)F)c(C(F)(F)C(F)(F)F)nn3C)c2)ccc1Cl (stereo not drawn) [Ic-120] |  |  |  |  |  |  | 90% |  |  |  |  |  |  |  | 4.56 | 83% | 100%
Cn1nc(C(F)(F)C(F)(F)F)c(C(F)(F)F)c1-n1cc(-c2ccc(Cl)c(C(=O)NCC(N)=O)c2)cn1 [Ic-156] |  | 100% |  |  |  |  | 90% | 100% | 100% |  |  | 100% | 90% | 90% |  |  | 
